Data published in patent US9138389B2, “Use of a jasmonic acid compound for treating greasy skin” (L'OREAL, priority 2009, dated 2015).

System: greasy skin
Assay: in vivo panel test with a cosmetic composition on greasy skin
Conditions: cosmetic composition comprising the compound

Q: How did the “efficacy for treating greasy skin” value turn out when `CCCCCC1C(O)CCC1CC(=O)O` (stereo not shown) [3-hydroxy-2-pentylcyclopentaneacetic acid] was run?
A: Its value is “revealed the efficacy of the compound for treating greasy skin”.
